Laboratory results: US11377442B2, “Small molecule agonists and antagonists of NR2F6 activity” (ZANDER THERAPEUTICS, INC., priority 2016, dated 2022)
“And” between values parts separate entries of the source, which are not always exact repeats. Equal values may be shown once. Read-outs that look alike come from different tables or passages of the source. One block for each compound: values may come before it.

Key:
Assay type in all cases: cell-based
[1] = biological target: T1, NR2F6 (Homo sapiens, UniProt P10588); experiment: NR2F6 agonist screening, Firefly signal cmpd/DMSO
T1 construct: expressed in transfected cells; also transient transfection
T1 sequence (P10588 1-404): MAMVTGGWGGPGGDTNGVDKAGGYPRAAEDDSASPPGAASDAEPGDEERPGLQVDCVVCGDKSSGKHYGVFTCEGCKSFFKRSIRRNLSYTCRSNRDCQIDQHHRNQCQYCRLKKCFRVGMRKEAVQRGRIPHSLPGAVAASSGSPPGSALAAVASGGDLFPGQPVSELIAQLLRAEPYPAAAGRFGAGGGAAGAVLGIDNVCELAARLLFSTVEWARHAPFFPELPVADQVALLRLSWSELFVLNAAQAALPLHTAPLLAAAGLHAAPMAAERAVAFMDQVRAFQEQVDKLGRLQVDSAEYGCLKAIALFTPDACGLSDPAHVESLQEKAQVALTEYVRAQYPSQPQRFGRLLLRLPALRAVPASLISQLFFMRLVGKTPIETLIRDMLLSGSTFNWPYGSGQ

[2] = system: Renilla; experiment: Renilla signal in NR2F6 agonist screening, cmpd/DMSO; settings: Renilla, F4
[3] = system: HEK293 pGL4; experiment: Firefly_pGL signal, cmpd/DMSO (pGL4 control cells); settings: Homo sapiens
[4] = biological target: T2, NR2F6 LBD (Homo sapiens, UniProt P10588); experiment: NR2F6 LBD transient transfection; settings: LBD
T2 construct: expressed in transfected cells
T2 sequence (P10588 165-393 limits assumed): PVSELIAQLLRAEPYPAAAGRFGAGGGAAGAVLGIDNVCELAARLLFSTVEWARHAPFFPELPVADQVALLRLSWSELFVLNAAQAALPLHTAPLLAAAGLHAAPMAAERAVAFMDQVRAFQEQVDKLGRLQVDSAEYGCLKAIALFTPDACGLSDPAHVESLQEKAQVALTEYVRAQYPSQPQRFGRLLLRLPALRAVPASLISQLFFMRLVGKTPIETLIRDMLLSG
In short: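 LBD-transfected cells treated at 40, 10, 2 and 0.5 μM (4 replicates); cytotoxicity measured in parallel, normalized to DMSO (0%) and zero signal (100%). Higher concentrations excluded where signal loss reflected toxicity.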

[5] = read-out: Renilla, F4, cmpd/DMSO (mean)
[6] = 1% FBS, read-out: Renilla, F4, 1% FBS, cmpd/DMSO (mean)
[7] = 10% FBS, read-out: Renilla, F4, 10% FBS, cmpd/DMSO (mean)
[8] = HEK293, 0.5 uM, pGL4, read-out: Firefly pGL4, cmpd/DMSO (mean)
[9] = HEK293, 2 uM, pGL4, read-out: Firefly pGL4, cmpd/DMSO (mean)
[10] = HEK293, 10 uM, pGL4, read-out: Firefly pGL4, cmpd/DMSO (mean)
[11] = HEK293, 40 uM, pGL4, read-out: Firefly pGL4, cmpd/DMSO (mean)
[12] = HEK293, pGL4, 1% FBS, 0.5 uM, read-out: Firefly, pGL4, 1% FBS, cmpd/DMSO (mean)
[13] = HEK293, pGL4, 1% FBS, 2 uM, read-out: Firefly, pGL4, 1% FBS, cmpd/DMSO (mean)
[14] = HEK293, pGL4, 1% FBS, 10 uM, read-out: Firefly, pGL4, 1% FBS, cmpd/DMSO (mean)
[15] = HEK293, pGL4, 10% FBS, 0.5 uM, read-out: Firefly, pGL4, 10% FBS, cmpd/DMSO (mean)
[16] = HEK293, pGL4, 10% FBS, 2 uM, read-out: Firefly, pGL4, 10% FBS, cmpd/DMSO (mean)
[17] = HEK293, pGL4, 10% FBS, 10 uM, read-out: Firefly, pGL4, 10% FBS, cmpd/DMSO (mean)
[18] = HEK293, pGL4, 1% FBS, 40 uM, read-out: Firefly, pGL4, 1% FBS, cmpd/DMSO (mean)
[19] = HEK293, pGL4, 10% FBS, 40 uM, read-out: Firefly, pGL4, 10% FBS, cmpd/DMSO (mean)

- Firefly F4, cmpd/DMSO (mean) ([1]; 0.5 uM): 1.2
- Firefly F4, cmpd/DMSO (mean) ([1]; 2 uM): 1.1
- Firefly F4, cmpd/DMSO (mean) ([1]; 10 uM): 2.2
- Firefly F4, cmpd/DMSO (mean) ([1]; 40 uM): 2.0
- F4, Firefly/Renilla for S/B(F4) > 3 ([1]; 1% FBS, 10 uM): 2.7
- Firefly, F4/pGL4 for S/B(F4) > 3 ([1]; 1% FBS, 10 uM): 1.8
- F4, Firefly/Renilla for S/B(F4) > 3 ([1]; 1% FBS, 40 uM): 1.9
- Firefly, F4/pGL4 for S/B(F4) > 3 ([1]; 1% FBS, 40 uM): 2.4
- F4, Firefly/Renilla for S/B(F4) > 3 ([1]; 10% FBS, 10 uM): 3.2
- Firefly, F4/pGL4 for S/B(F4) > 3 ([1]; 10% FBS, 10 uM): 2.1
- F4, Firefly/Renilla for S/B(F4) > 3 ([1]; 10% FBS, 40 uM): 2.1
- Firefly, F4/pGL4 for S/B(F4) > 3 ([1]; 10% FBS, 40 uM): 2.3
- Firefly, F4, 1% FBS, cmpd/DMSO (mean) ([1]; 1% FBS, 0.5 uM): 1.0 and 1.3
- Firefly, F4, 1% FBS, cmpd/DMSO (mean) ([1]; 1% FBS, 2 uM): 1.8 and 0.9
- Firefly, F4, 10% FBS, cmpd/DMSO (mean) ([1]; 10% FBS, 0.5 uM): 1.2
- Firefly, F4, 10% FBS, cmpd/DMSO (mean) ([1]; 10% FBS, 2 uM): 1.4 and 0.7
- Firefly LBD, cmpd/DMSO (mean) ([4]; 0.5 uM): 1.2
- Firefly LBD, cmpd/DMSO (mean) ([4]; 2 uM): 1.2
- Firefly LBD, cmpd/DMSO (mean) ([4]; 10 uM): 2.3
- Firefly LBD, cmpd/DMSO (mean) ([4]; 40 uM): 2.1
Structure (SMILES): Cc1cccc(CN[C@H]2CS(=O)(=O)C[C@@H]2S(=O)(=O)c2ccc(Cl)cc2)c1 [Compound D127]
- fold induction at 0.5 µM [2, 5]: 1
- fold induction at 2 µM [2, 5]: 1
- fold induction at 10 µM [2, 5]: 1.2
- fold induction at 40 µM [2, 5]: 1.3
- fold induction at 0.5 µM [2, 6]: 1.1
- fold induction at 2 µM [2, 6]: 1.2
- fold induction at 10 µM [2, 6]: 1.8
- fold induction at 40 µM [2, 6]: 1.5
- fold induction at 0.5 µM [2, 7]: 1
- fold induction at 2 µM [2, 7]: 1.1
- fold induction at 10 µM [2, 7]: 1.7
- fold induction at 0.5 µM [3, 8]: 1
- fold induction at 2 µM [3, 9]: 1.4
- fold induction at 10 µM [3, 10]: 1.8
- fold induction at 40 µM [3, 11]: 2.6
- fold induction at 0.5 µM [3, 12]: 1.3
- fold induction at 2 µM [3, 13]: 1.9
- fold induction at 10 µM [3, 14]: 2.7
- fold induction at 0.5 µM [3, 15]: 1.2
- fold induction at 2 µM [3, 16]: 1.7
- fold induction at 10 µM [3, 17]: 2.7

- Firefly F4, cmpd/DMSO (mean) ([1]; 0.5 uM): 1.2
- Firefly F4, cmpd/DMSO (mean) ([1]; 2 uM): 2.0
- Firefly F4, cmpd/DMSO (mean) ([1]; 10 uM): 4.3
- Firefly F4, cmpd/DMSO (mean) ([1]; 40 uM): 3.4
- F4, Firefly/Renilla for S/B(F4) > 3 ([1]; 10% FBS, 40 uM): 2.6
- Firefly, F4/pGL4 for S/B(F4) > 3 ([1]; 10% FBS, 40 uM): 1.8
- Firefly, F4, 1% FBS, cmpd/DMSO (mean) ([1]; 1% FBS, 0.5 uM): 0.9
- Firefly, F4, 1% FBS, cmpd/DMSO (mean) ([1]; 1% FBS, 2 uM): 1.1
- Firefly, F4, 1% FBS, cmpd/DMSO (mean) ([1]; 1% FBS, 10 uM): 2.9
- Firefly, F4, 1% FBS, cmpd/DMSO (mean) ([1]; 1% FBS, 40 uM): 1.4
- Firefly, F4, 10% FBS, cmpd/DMSO (mean) ([1]; 10% FBS, 0.5 uM): 1.1
- Firefly, F4, 10% FBS, cmpd/DMSO (mean) ([1]; 10% FBS, 2 uM): 0.8
- Firefly, F4, 10% FBS, cmpd/DMSO (mean) ([1]; 10% FBS, 10 uM): 1.9
- Firefly, F4, 10% FBS, cmpd/DMSO (mean) ([1]; 10% FBS, 40 uM): 4.1
- Firefly LBD, cmpd/DMSO (mean) ([4]; 0.5 uM): 1.1
- Firefly LBD, cmpd/DMSO (mean) ([4]; 2 uM): 1.7
- Firefly LBD, cmpd/DMSO (mean) ([4]; 10 uM): 2.7
- Firefly LBD, cmpd/DMSO (mean) ([4]; 40 uM): 2.4
Structure (SMILES): COc1ccc(CCN[C@H]2CS(=O)(=O)C[C@@H]2S(=O)(=O)c2ccc(Cl)cc2)cc1OC [Compound D129]
- fold induction at 0.5 µM [2, 5]: 1.1
- fold induction at 2 µM [2, 5]: 1.2
- fold induction at 10 µM [2, 5]: 1.4
- fold induction at 40 µM [2, 5]: 1.6
- fold induction at 0.5 µM [2, 6]: 1.1
- fold induction at 2 µM [2, 6]: 1.1
- fold induction at 10 µM [2, 6]: 1.6
- fold induction at 40 µM [2, 6]: 1.5
- fold induction at 0.5 µM [2, 7]: 1
- fold induction at 2 µM [2, 7]: 0.9
- fold induction at 10 µM [2, 7]: 1.1
- fold induction at 40 µM [2, 7]: 1.5
- fold induction at 0.5 µM [3, 8]: 1.4
- fold induction at 2 µM [3, 9]: 1.5
- fold induction at 10 µM [3, 10]: 2.9
- fold induction at 40 µM [3, 11]: 1.6
- fold induction at 0.5 µM [3, 12]: 1.4
- fold induction at 2 µM [3, 13]: 1.2
- fold induction at 10 µM [3, 14]: 1.9
- fold induction at 40 µM [3, 18]: 1.6
- fold induction at 0.5 µM [3, 15]: 1
- fold induction at 2 µM [3, 16]: 1
- fold induction at 10 µM [3, 17]: 2
- fold induction at 40 µM [3, 19]: 2.2

- Firefly F4, cmpd/DMSO (mean) ([1]; 0.5 uM): 1.1
- Firefly F4, cmpd/DMSO (mean) ([1]; 2 uM): 1.7
- Firefly F4, cmpd/DMSO (mean) ([1]; 10 uM): 2.7
- Firefly F4, cmpd/DMSO (mean) ([1]; 40 uM): 3.5
- F4, Firefly/Renilla for S/B(F4) > 3 ([1]; 10% FBS, 40 uM): 2.2
- Firefly, F4/pGL4 for S/B(F4) > 3 ([1]; 10% FBS, 40 uM): 1.9
- Firefly, F4, 1% FBS, cmpd/DMSO (mean) ([1]; 1% FBS, 0.5 uM): 1.2
- Firefly, F4, 1% FBS, cmpd/DMSO (mean) ([1]; 1% FBS, 2 uM): 1.5
- Firefly, F4, 1% FBS, cmpd/DMSO (mean) ([1]; 1% FBS, 10 uM): 2.0
- Firefly, F4, 1% FBS, cmpd/DMSO (mean) ([1]; 1% FBS, 40 uM): 2.0
- Firefly, F4, 10% FBS, cmpd/DMSO (mean) ([1]; 10% FBS, 0.5 uM): 0.8
- Firefly, F4, 10% FBS, cmpd/DMSO (mean) ([1]; 10% FBS, 2 uM): 0.9
- Firefly, F4, 10% FBS, cmpd/DMSO (mean) ([1]; 10% FBS, 10 uM): 1.4
- Firefly, F4, 10% FBS, cmpd/DMSO (mean) ([1]; 10% FBS, 40 uM): 3.3
- Firefly LBD, cmpd/DMSO (mean) ([4]; 0.5 uM): 1.0
- Firefly LBD, cmpd/DMSO (mean) ([4]; 2 uM): 1.1
- Firefly LBD, cmpd/DMSO (mean) ([4]; 10 uM): 2.4
- Firefly LBD, cmpd/DMSO (mean) ([4]; 40 uM): 2.6
Structure (SMILES): O=S1(=O)C[C@H](NCCc2cccs2)[C@@H](S(=O)(=O)c2ccc(Cl)cc2)C1 [Compound D128]
- fold induction at 0.5 µM [2, 5]: 1
- fold induction at 2 µM [2, 5]: 1.2
- fold induction at 10 µM [2, 5]: 1.4
- fold induction at 40 µM [2, 5]: 1.6
- fold induction at 0.5 µM [2, 6]: 1.2
- fold induction at 2 µM [2, 6]: 1.1
- fold induction at 10 µM [2, 6]: 1.6
- fold induction at 40 µM [2, 6]: 1.7
- fold induction at 0.5 µM [2, 7]: 0.9
- fold induction at 2 µM [2, 7]: 1
- fold induction at 10 µM [2, 7]: 1.1
- fold induction at 40 µM [2, 7]: 1.5
- fold induction at 0.5 µM [3, 8]: 1.2
- fold induction at 2 µM [3, 9]: 1.6
- fold induction at 10 µM [3, 10]: 2.1
- fold induction at 40 µM [3, 11]: 1.5
- fold induction at 0.5 µM [3, 12]: 1.1
- fold induction at 2 µM [3, 13]: 1.3
- fold induction at 10 µM [3, 14]: 1.9
- fold induction at 40 µM [3, 18]: 1.5
- fold induction at 0.5 µM [3, 15]: 0.8
- fold induction at 2 µM [3, 16]: 1.1
- fold induction at 10 µM [3, 17]: 1.5
- fold induction at 40 µM [3, 19]: 1.7
